Source: ChEMBL document CHEMBL1201862, “PubChem BioAssay data set” (2004)
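1) Cells in 96-well plates. 2) Compound, 48 h, 5 concentrations. 3) Linear interpolation between surrounding doses. 4) Unreached endpoint = highest concentration. At the GI50, growth is halved.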 Activity calls are given as the source filed them. Rule as the data show it: active = GI50 up to about 1.1 µM and inactive = higher.

Key:
Test in all cases: growth of human tumour cells (NCI), 48 h
[1] = test system: SN12C
[2] = test system: SK-MEL-5
[3] = test system: SK-MEL-28
[4] = test system: MDA-MB-435
[5] = test system: OVCAR-3
[6] = test system: 786-0
[7] = test system: UACC-257
[8] = test system: ACHN
[9] = test system: COLO 205
[10] = test system: MDA-MB-231
[11] = test system: MDA-N
[12] = test system: Malme-3M
[13] = test system: SF-295
[14] = test system: SW-620
[15] = test system: LOX IMVI
[16] = test system: PC-3
[17] = test system: U-251
[18] = test system: RXF 393
[19] = test system: UO-31
[20] = test system: NCI-H522

Measured: GI50

Cc1cc(NS(=O)(=O)c2ccc(NC(NC(=O)OC(C)C)(C(F)(F)F)C(F)(F)F)cc2)nc(C)n1
inactive: [1] > 100 µM | [2] > 100 µM | [3] > 100 µM | [4] > 100 µM | [5] > 100 µM | [6] > 100 µM | [7] > 100 µM | [8] > 100 µM | [9] > 100 µM | [10] > 100 µM | [11] > 100 µM | [12] > 100 µM | [13] > 100 µM | [14] > 100 µM | [15] > 100 µM | [16] > 100 µM | [17] > 100 µM | [18] > 100 µM

CC1(c2ccccc2)CCN(C2CC2)CO1 (centres undefined)
inactive: [1] 16.8 µM | [2] > 100 µM | [3] 19.7 µM | [19] 18.5 µM | [4] 49.9 µM | [5] 17.7 µM | [6] 11.4 µM | [7] 22.4 µM | [8] 17.9 µM | [9] 21.6 µM | [10] 19.3 µM | [11] 15.1 µM | [12] 19.9 µM | [13] > 100 µM | [14] 19 µM | [15] 18 µM | [16] > 100 µM | [17] > 100 µM | [18] 26.9 µM

CN(C1=NCCO1)c1cccc2c1CCCC2
inactive: [1] 3.08 µM | [2] 2.11 µM | [3] 6.01 µM | [4] 3.64 µM | [6] 3.17 µM | [7] 3.92 µM | [8] 3.18 µM | [9] 1.89 µM | [20] 4.16 µM | [10] 1.73 µM | [11] 5.18 µM | [12] 2.76 µM | [13] 4.35 µM | [14] > 10 µM | [15] 2.58 µM | [16] 2.25 µM | [17] 3.57 µM | [18] 3.64 µM

Cc1nn(C(=O)c2ccncc2)c2c1C(c1ccc([N+](=O)[O-])cc1)SC(=N)N2 (centres undefined)
inactive: [1] > 100 µM | [2] > 100 µM | [3] > 100 µM | [19] > 100 µM | [4] > 100 µM | [5] > 100 µM | [6] > 100 µM | [7] > 100 µM | [8] > 100 µM | [9] > 100 µM | [10] > 100 µM | [11] > 100 µM | [12] > 100 µM | [13] > 100 µM | [14] > 100 µM | [15] > 100 µM | [16] > 100 µM | [17] > 100 µM | [18] > 100 µM

O=C1NC(=S)NC(=O)C1C(c1ccc([N+](=O)[O-])cc1)C1C(=O)NC(=S)NC1=O.c1ccncc1
inactive: [1] > 100 µM | [2] > 100 µM | [3] > 100 µM | [19] > 100 µM | [4] > 100 µM | [5] > 100 µM | [6] > 100 µM | [7] > 100 µM | [8] > 100 µM | [9] > 100 µM | [20] > 100 µM | [10] > 100 µM | [11] > 100 µM | [13] > 100 µM | [14] > 100 µM | [15] > 100 µM | [16] > 100 µM | [17] > 100 µM | [18] > 100 µM

CCOC(=O)/C(C#N)=C/N(CC)/N=C/c1ccccc1
inactive: [1] > 100 µM | [2] > 100 µM | [3] > 100 µM | [19] > 100 µM | [4] > 100 µM | [5] > 100 µM | [6] 86.9 µM | [7] > 100 µM | [8] > 100 µM | [9] > 100 µM | [20] > 100 µM | [10] > 100 µM | [11] > 100 µM | [12] > 100 µM | [13] 69.8 µM | [14] > 100 µM | [16] > 100 µM | [17] > 100 µM | [18] 97.3 µM

COCc1nc(C#N)c(N)o1
inactive: [1] > 10 µM | [2] > 10 µM | [3] > 10 µM | [19] > 10 µM | [4] > 10 µM | [6] > 10 µM | [7] > 10 µM | [8] > 10 µM | [9] > 10 µM | [20] > 10 µM | [10] > 10 µM | [11] > 10 µM | [12] > 10 µM | [13] > 10 µM | [14] > 10 µM | [15] > 10 µM | [16] > 10 µM | [18] > 10 µM

O=S(=O)(c1ccccc1)N1CCCC(c2ccccc2)CC1 (centres undefined)
inactive: [1] 46 µM | [2] 14.6 µM | [3] > 100 µM | [19] 55 µM | [4] 82 µM | [5] 53.2 µM | [6] 41.9 µM | [7] 38.9 µM | [8] 29.2 µM | [9] 42 µM | [20] 35.4 µM | [10] 30.4 µM | [11] 64.6 µM | [12] 30.8 µM | [13] 43.7 µM | [14] 33 µM | [16] 30.6 µM | [17] 45.5 µM | [18] 41.5 µM

O=C1Cc2c([nH]c3ccc(Br)cc23)-c2cc(O)c(O)cc2N1
inactive: [1] > 100 µM | [3] > 100 µM | [19] > 100 µM | [4] > 100 µM | [5] > 100 µM | [6] > 100 µM | [7] > 100 µM | [8] > 100 µM | [9] > 100 µM | [20] > 100 µM | [10] > 100 µM | [11] > 100 µM | [13] > 100 µM | [14] > 100 µM | [15] > 100 µM | [16] > 100 µM | [17] > 100 µM | [18] > 100 µM

CCCCS/C(=C(/C#N)C(N)=O)c1cc2c([nH]1)CCCC2
inactive: [1] 23.9 µM | [2] 13.8 µM | [3] 14 µM | [19] 13.1 µM | [4] 3.36 µM | [5] 15.7 µM | [6] 11.5 µM | [7] 14.3 µM | [8] 16.3 µM | [9] 14 µM | [10] 13.1 µM | [11] 4.19 µM | [12] 11.4 µM | [13] 12.4 µM | [14] 6.12 µM | [15] 8.93 µM | [16] 11.4 µM | [17] 15.7 µM | [18] 14.9 µM

Cc1cn(C2CCC(/C=N\O)O2)c(=O)[nH]c1=O (centres undefined)
inactive: [1] > 100 µM | [2] > 100 µM | [3] > 100 µM | [19] > 100 µM | [4] > 100 µM | [5] > 100 µM | [6] > 100 µM | [7] > 100 µM | [8] > 100 µM | [9] > 100 µM | [10] > 100 µM | [11] > 100 µM | [13] > 100 µM | [14] > 100 µM | [15] > 100 µM | [16] > 100 µM | [17] > 100 µM | [18] > 100 µM
